In the data set the test system is mouse and human plasma stability, LC/MS/MS, 180 min. The experiment in a line: compound stability in mouse and human plasma, late-stage follow-up, ADME assay for GPR30 and estrogen receptor ligands, biochemical (AID 623907). Conditions: at 1 µM, stronger effect = higher value.

The structures appear in SMILES notation.

For the compound `COc1cc([N+](=O)[O-])cc2c1NC(C1CC=CCC1)C1CC=CC21` (configuration not stated), the percent remaining was 94.5%. This compound showed a percent remaining (measured here: human plasma stability, 180 min) of 100%.

Values taken from PubChem BioAssay AID623907 (NMMLSC, 2012).
